Patent publication US20240285784A1, “PEPTIDIC CONJUGATES OF SN38 USEFUL IN THE TREATMENT OF CANCER” (FUNDACIÓ INSTITUT DE RECERCA BIOMÈDICA (IRB BARCELONA), priority 2020, published 2024)
Where two headings read alike, the source gives them in different places. *1 amine or outer side, *2 acyl side, *3 side chain or, on linkers, in order; H or OH if unused. Where a SMILES comes first, the peptide text is derived from it. Bridges are numbered along the chain shown (N, C = ends). [ ]: non-standard residue; d: D form. The star is where a group is joined. X1 = CCc1c2c(nc3ccc(O)cc13)-c1cc3c(c(=O)n1C2)COC(=O)[C@@]3(CC)OC(=O)CCCCn1cc(CCCC(=O)NCCCOCCOCCOCCCN*)nn1; Suc = O=C(CCC(=O)[*:2])[*:1]; Dap = NC[C@H](N)C(=O)O

Legend:
Format in all cases: cell-based
[1] = tested on: adult glioma cell line U373; assay: MTS cell viability assay, adult glioma cell line U373; conditions: 72 h incubation, Example 9, Table 3, read-out: IC50 values against cancer cell lines
Source text: (§1) Cancer cell lines were obtained from the repository maintained at Hospital Sant Joan de Deu (Barcelona, Spain). Cancer cell lines used in these experiment included cancer types of adult glioma (U373 and U87 cell lines), pediatric gliomas including diffuse intrinsic pontine glioma (HSJD-DIPG-007, HSJD-DIPG-011), and pediatric high-grade glioma (HSJD-GBM-001), retinoblastoma (HSJD-RBT-5, HSJD-RBT-7 and HSJD-RBT-14), Ewing sarcoma (A673), rhabdomyosarcoma (Rd and RH4) and neuroblastoma (LAN-1 and SK-N-JD cell lines and HSJD-NB-004, HSJD-NB-005 and HSJD-NB-016 patient-derived cell models). […] To add the drugs to the cells in culture, SN38-linker A-MiniAp4 (Ia) and irinotecan were prepared in culture medium from stock solutions at concentration 1 mg/mL in water. SN38 was prepared in culture medium from a stock solution at concentration 1 mg/mL in DMSO. […] Activity curves were built for adult glioma cell lines U87 (FIG. 1) and U373 (FIG. 2), pediatric gliomas including DIPG models HSJD-DIPG-007 (FIG. 3) and HSJD-DIPG-011 (FIG. 4), and pediatric high-grade glioma model HSJD-GBM-001 (FIG. 5), retinoblastoma models HSJD-RBT-5 (FIG. 6), HSJD-RBT-7 (FIG. 7) and HSJD-RBT-14 (FIG. 8), Ewing sarcoma cell line A673 (FIG. 9), rhabdomyosarcoma cell lines Rd (FIG. 10) and RH4 (FIG. 11), neuroblastoma cell lines LAN-1 (FIG. 12) and SK-N-JD (FIG. 13) and neuroblastoma patient-derived cell models HSJD-NB-004 (FIG. 14), HSJD-NB-005 (FIG. 15) and HSJD-NB-016 (FIG. 16). The established IC50 values are in Table 3.

[2] = tested on: pediatric high-grade glioma HSJD-GBM-001; assay: cells; conditions: MTS, 72 h incubation
Source text: Cancer cell lines were obtained from the repository maintained at Hospital Sant Joan de Deu (Barcelona, Spain). Cancer cell lines used in these experiment included cancer types of adult glioma (U373 and U87 cell lines), pediatric gliomas including diffuse intrinsic pontine glioma (HSJD-DIPG-007, HSJD-DIPG-011), and pediatric high-grade glioma (HSJD-GBM-001), retinoblastoma (HSJD-RBT-5, HSJD-RBT-7 and HSJD-RBT-14), Ewing sarcoma (A673), rhabdomyosarcoma (Rd and RH4) and neuroblastoma (LAN-1 and SK-N-JD cell lines and HSJD-NB-004, HSJD-NB-005 and HSJD-NB-016 patient-derived cell models). Briefly, between 3000 and 30,000 cancer cells were cultured in 96 well plates and 24 h later the cells were exposed to compound SN38-linker A-MiniAp4 (Ia) (concentration range 1-0.00000001 μM), SN38 (concentration range 1-0.00000001 μM), or irinotecan (concentration range 100-0,000001 μM). To add the drugs to the cells in culture, SN38-linker A-MiniAp4 (Ia) and irinotecan were prepared in culture medium from stock solutions at concentration 1 mg/mL in water. SN38 was prepared in culture medium from a stock solution at concentration 1 mg/mL in DMSO. The tetrazolium compound [3-(4,5-dimethylthiazol-2-yl)-5-(3-carboxymethoxyphenyl)-2-(4-sulfophenyl)-2H-tetrazolium] (MTS assay; Promega, Fitchburg, WI) was used to determine cell viability after 72 h incubation with the drugs. The concentrations of drug required to cause a reduction of 50% in cell proliferation (IC50 and 95% confidence intervals) were calculated with Graphpad Prism 8 software (La Jolla, CA). Activity curves were built for adult glioma cell lines U87 (FIG. 1) and U373 (FIG. 2), pediatric gliomas including DIPG models HSJD-DIPG-007 (FIG. 3) and HSJD-DIPG-011 (FIG. 4), and pediatric high-grade glioma model HSJD-GBM-001 (FIG. 5), retinoblastoma models HSJD-RBT-5 (FIG. 6), HSJD-RBT-7 (FIG. 7) and HSJD-RBT-14 (FIG. 8), Ewing sarcoma cell line A673 (FIG. 9), rhabdomyosarcoma cell lines Rd (FIG. 10) and RH4 (FIG. 11), neuroblastoma cell lines LAN-1 (FIG. 12) and SK-N-JD (FIG. 13) and neuroblastoma patient-derived cell models HSJD-NB-004 (FIG. 14), HSJD-NB-005 (FIG. 15) and HSJD-NB-016 (FIG. 16). The established IC50 values are in Table 3.
The present inventors compared the activity of the new compound SN38 conjugated with MiniAp4 (SN38-linkerA-MiniAp4, example 7 also named G2B-001) and with SN38-linker B-THRre (comparative example 2). Original compound SN38 was used as reference. Cancer cell lines used in these experiments were pediatric gliomas including diffuse intrinsic pontine glioma HSJD-DIPG-007, and pediatric high-grade glioma HSJD-GBM-001. Briefly, 3000 cancer cells were cultured in 96 well plates and 24 h later the cells were exposed to compound compound (Ia) (concentration range 1-0.00000001 μM), SN38-Linker B-THRre (concentration range 1-0.00000001 μM), and SN38 (concentration range 1-0.00000001 μM). To add the drugs to the cells in culture, SN38-Linker A-MiniAp4 (Ia) and SN38-Linker B-THRre were prepared in culture medium from stock solutions at concentration 1 mg/mL in water. SN38 was prepared in culture medium from a stock solution at concentration 1 mg/mL in DMSO. The MTS assay was used to determine cell viability after 72 h incubation with the drugs. The concentrations of drug required to cause a reduction of 50% in cell proliferation (IC50 and 95% confidence intervals) were calculated with Graphpad Prism 8 software (La Jolla, CA). Activity curves were built for cells HSJD-DIPG-007 (FIG. 20) and HSJD-GBM-001 (FIG. 21). The established IC50 values are in Table 4.
Cancer cell lines used in these experiments were pediatric gliomas including diffuse intrinsic pontine glioma HSJD-DIPG-007, and pediatric high-grade glioma HSJD-GBM-001. Briefly, 3000 cancer cells were cultured in 96 well plates and 24 h later the cells were exposed to compounds (Ia), comparative example 1 and comparative example 2 (concentration range 1-0.001 μM for each of them). […]

[3] = tested on: retinoblastoma cell model HSJD-RBT-7; assay: MTS cell viability assay, retinoblastoma model HSJD-RBT-7; conditions: 72 h incubation, Example 9, Table 3, read-out: IC50 values against cancer cell lines
Source text: as §1

[4] = tested on: neuroblastoma patient-derived cell model HSJD-NB-004; assay: MTS cell viability assay, neuroblastoma model HSJD-NB-004; conditions: 72 h incubation, Example 9, Table 3, read-out: IC50 values against cancer cell lines
Source text: as §1

[5] = Example 9, Table 3, read-out: IC50 values against cancer cell lines
[6] = Example 11, Table 4, read-out: IC50 values of compounds

| IC50 ([1]; Homo sapiens, U373 MG) [nM] | IC50 [2, 5] [µM] | IC50 [3] [nM] | IC50 [4] [nM] | SMILES | IC50 [2, 6] [µM] | IC50 [1] [nM] | IC50 ([2]; Example 12, Table 5, read-out: IC50 values (μM) against cancer cell lines) [µM] |
| --- | --- | --- | --- | --- | --- | --- | --- |
| 3720 | 9.57 | 1120 | 9840 | CCc1c2c(nc3ccc(OC(=O)N4CCC(N5CCCCC5)CC4)cc13)-c1cc3c(c(=O)n1C2)COC(=O)[C@]3(O)CC [Irinotecan] | – | – | – |
| 0.869 | 0.00261 | 0.335 | 231 | CCc1c2c(nc3ccc(O)cc13)-c1cc3c(c(=O)n1C2)COC(=O)[C@]3(O)CC [SN38, 7-ethyl-10-hydroxy-camptothecin] | 0.00631 | – | – |

| SMILES | IC50 ([1]; Homo sapiens, U373 MG) [nM] | IC50 [2, 5] [µM] | IC50 [3] [nM] | IC50 [4] [nM] | IC50 [2, 6] [µM] | IC50 [1] [nM] | IC50 ([2]; Example 12, Table 5, read-out: IC50 values (μM) against cancer cell lines) [µM] |
| --- | --- | --- | --- | --- | --- | --- | --- |
| CCc1c2c(nc3ccc(O)cc13)-c1cc3c(c(=O)n1C2)COC(=O)[C@@]3(CC)OC(=O)CCCCn1cc(CCCC(=O)NCCCOCCOCCOCCCNC(=O)CCC(=O)N[C@H]2CNC(=O)C[C@@H](C(N)=O)NC(=O)[C@H](CC(C)C)NC(=O)[C@H](C)NC(=O)[C@H]([C@@H](C)O)NC(=O)[C@H](CCC(=O)O)NC(=O)[C@@H]3CCCN3C(=O)[C@H](C)NC(=O)[C@H](CCCCN)NC2=O)nn1 [SN38-linker A-MiniAp4 (Ia)] ({X1-Suc}-[Dap]KAPETALD-NH2; lactam 1-9) | – | 0.0703 | 15.1 | 76.9 | 0.00639 | 6.65 | 0.0216 |
